In data set [1] the test system is lens elasticity. Nature of the data set: Pharmacological Test 1: effect of EV06 eye drops on lens elasticity (lens diameter change under cover glass). The settings on record: 3 times per day for 15 to 17 days; for Lens elasticity improvement: 2.5 μL/eye, 8-month-old mice, vs vehicle control. Format: in vivo, C57BL/6J mice. On the procedure: The effect of lipoic acid choline ester (EV06) on the lens elasticity was examined. The tests were conducted with reference to the methods described in InvestOphthalmol Vis Sci, 57, 2851-2863, 2016. EV06 is a compound represented by the following formula (2): A vehicle comprising 0.1% (w/v) of ethyl pyruvate, 0.269% (w/v) of sodium dihydrogenphosphate monohydrate (NaH2PO4H2O), 0.433% (w/v) of disodium hydrogenphosphate (Na2HPO4), 0.2% (w/v) of hydroxypropyl methylcellulose, and 0.5% (w/v) of NaCl was prepared. EV06 was sonicated with the addition of the vehicle to prepare a 5% (w/v) suspension. The resulting 5% (w/v) suspension was diluted with the vehicle to prepare a 1.5% (w/v) solution. Further, the resulting 1.5% (w/v) solution was diluted with the vehicle to prepare a 0.5% (w/v) solution. The total amount of each sample to be used in one day was prepared before use. 1) Each test sample (2.5 μL/eye) was instilled into the right eye of 8-month-old C57BL/6J mice with a Pipetman 3 times per day (around 9:00, 13:00 and 17:00) for 15 to 17 days. 2) After the final instillation, the mice were euthanized by carbon dioxide inhalation, and then the eyeballs were extracted and rinsed with Hank's balanced salt solution (HBSS). 3) The sclera near the optic nerve was cut with a razor, the lens was removed through the incision, and the removed lens was immersed in HESS. 4) The lens was placed on a glass slide, and an all-in-one fluorescence microscope BZ-9000 (Keyence) was used to capture an image of the lens (Image a). 5) Next, one cover glass (Corning^(registered trade mark) 22×22 mm Square) was placed on the lens, and an image in which the thickness of the lens changed due to the weight was similarly captured (Image b). 6) A change in the lens diameter was calculated from Equation 1 wherein the lens diameter of Image a is subtracted from the lens diameter of Image b, as described below. Then, the lens elasticity improvement of each sample group compared with the vehicle control group was calculated from Equation 2 described below. The mean of the vehicle control group was based on 6 eyes and the mean of each EV06 sample group was based on 12 eyes. Change in lens diameter=Lens diameter in Image b of each test sample−Lens diameter in Image a of each test sample (Equation 1) Lens elasticity improvement of each sample group=Mean change in lens diameter of each EV06 sample group−Mean change in lens diameter of Vehicle control group (Equation 2) (Results)

In data set [2] the test system is lens elasticity. Nature of the data set: Pharmacological Test 2: effect of sodium 4-phenylbutyrate eye drops on lens elasticity. Format: in vivo, C57BL/6J mice. The settings on record: 3 times per day for 12 to 15 days; for Lens elasticity improvement: 2.5 μL/eye, 8-month-old mice, vs vehicle control. On the procedure: The effect of sodium 4-phenylbutyrate on the lens elasticity was examined. A vehicle comprising 0.1% (w/v) of ethyl pyruvate, 0.269% (w/v) of sodium dihydrogenphosphate monohydrate (NaH2PO4H2O), 0.433% (w/v) of disodium hydrogenphosphate (Na2HPO4), 0.2% (w/v) of hydroxypropyl methylcellulose, 0.5% (w/v) of NaCl was prepared. Sodium 4-phenylbutyrate was sonicated with the addition of the vehicle to prepare a 1.5% (w/v) solution. The resulting 1.5% (w/v) solution was diluted with the vehicle to prepare a 0.5% (w/v) solution. Further, the resulting 0.5% (w/v) solution was diluted with the vehicle to prepare a 0.15% (w/v) solution. The total amount of each sample to be used in one day was prepared before use. EV06 was sonicated with the addition of the vehicle to prepare a 1.5% (w/v) solution. The total amount of the sample to be used in one day was prepared before use. 1) Each test sample (2.5 μL/eye) was instilled into the right eye of 8-month-old C57BL/6J mice with a Pipetman 3 times per day (around 9:00, 13:00 and 17:00) for 12 to 15 days. 2) After the final instillation, the mice were euthanized by carbon dioxide inhalation, and then the eyeballs were extracted and rinsed with Hank's balanced salt solution (HBSS). 3) The sclera near the optic nerve was cut with a razor, the lens was removed through the incision, and the removed lens was immersed in HESS. 4) The lens was placed on a glass slide, and an all-in-one fluorescence microscope BZ-9000 (Keyence) was used to capture an image of the lens (Image a). 5) Next, one cover glass (Corning^(registered trade mark) 22×22 mm Square) was placed on the lens, and an image in which the thickness of the lens changed due to the weight was similarly captured (Image b). 6) A change in the lens diameter was calculated from Equation 1 wherein the lens diameter of Image a is subtracted from the lens diameter of Image b, as described below. Then, the lens elasticity improvement of each sample group compared with the vehicle control group was calculated from Equation 2 described below. The mean of the vehicle control group was based on 4 eyes, the mean of each sodium 4-phenylbutyrate sample group and the mean of the EV06 sample group were based on 9-10 eyes. Change in lens diameter=Lens diameter in Image b of each test sample−Lens diameter in Image a of each test sample (Equation 1) Lens elasticity improvement of each sample group=Mean change in lens diameter of each Test sample group−Mean change in lens diameter of Vehicle control group (Equation 2) (Results)

Data set [3] has as its system lens elasticity. Nature of the data set: Pharmacological Test 3: effect of once-daily instillation of sodium 4-phenylbutyrate for 2 weeks on lens elasticity. It is filed as in vivo, C57BL/6J mice. The settings on record: for Lens elasticity improvement: 2.5 μL/eye, vs vehicle control. On the procedure:
The effect of once-daily instillation of sodium 4-phenylbutyrate for 2 weeks on the lens elasticity was examined. A vehicle comprising 0.1% (w/v) of ethyl pyruvate, 0.269% (w/v) of sodium dihydrogenphosphate monohydrate (NaH2PO4H2O), 0.433% (w/v) of disodium hydrogenphosphate (Na2HPO4), 0.2% (w/v) of hydroxypropyl methylcellulose, and 0.5% (w/v) of NaCl was prepared. Sodium 4-phenylbutyrate was dissolved with the addition of the vehicle to prepare a 3.0% (w/v) solution. The resulting 3.0% (w/v) solution was diluted with the vehicle to prepare a 1.0% (w/v) solution. Further, the resulting 1.0% (w/v) solution was diluted with the vehicle to prepare a 0.3% (w/v) solution. The total amount of each sample to be used in one day was prepared before use. EV06 was sonicated with the addition of the vehicle to prepare a 1.5% (w/v) solution. The total amount of the sample to be used in one day was prepared before use. 1) Each test sample (2.5 μL/eye) was instilled into the right eye of 8-month-old C57BL/6J mice with a Pipetman once per day (QD; around 9:00) or 3 times per day (TID; around 9:00, 13:00 and 17:00) for 14 days. 2) After the final instillation, the mice were euthanized by carbon dioxide inhalation, and then the eyeballs were extracted and rinsed with Hank's balanced salt solution (HBSS). 3) The sclera near the optic nerve was cut with a razor, the lens was removed through the incision, and the removed lens was immersed in HBSS. 4) The lens was placed on a glass slide, and an all-in-one fluorescence microscope BZ-9000 (Keyence) was used to capture an image of the lens (Image a). 5) Next, one cover glass (Corning^(registered trade mark) 22×22 mm Square) was placed on the lens, and an image in which the thickness of the lens changed due to the weight was similarly captured (Image b). 6) A change in the lens diameter was calculated from Equation 1 wherein the lens diameter of Image a is subtracted from the lens diameter of Image b, as described below. Then, the lens elasticity improvement of each sample group compared with the vehicle control group was calculated from Equation 2 described below. The mean of the vehicle control group was based on 5 eyes. The mean of each sodium 4-phenylbutyrate sample group and the mean of each EV06 sample group were based on 9 to 10 eyes. Change in lens diameter=Lens diameter in Image b of each test sample−Lens diameter in Image a of each test sample (Equation 1) Lens elasticity improvement of each sample group=Mean change in lens diameter of each Test sample group−Mean change in lens diameter of Vehicle control group (Equation 2) (Results)

For data set [4], the system named is anterior segment of the eye. As to the kind of experiment: Ocular Irritation Test (McDonald-Shadduck method, lens observation, histopathology). It is filed as in vivo, Japanese White rabbits. On the procedure: A vehicle (aqueous solution) comprising 0.1% (w/v) of ethyl pyruvate, 0.269% (w/v) of sodium dihydrogenphosphate monohydrate (NaH2PO4H2O), 0.433% (w/v) of disodium hydrogenphosphate (Na2HPO4), 0.2% (w/v) of hydroxypropyl methylcellulose, 0.5% (w/v) of NaCl was prepared.
0.3% (w/v), 1% (w/v), and 3% (w/v) sodium 4-phenylbutyrate ophthalmic liquids were prepared in the same manner as in the above pharmacological tests. These ophthalmic liquids and the vehicle were each instilled into the left eye of Japanese White rabbits at a dose of 50 μL/eye with pipette twice per day at a 6-hour interval for 2 weeks. One hour after the final instillation, ocular irritation of anterior segment of the eye was evaluated according to the McDonald-Shadduck method, and the lens was observed. The contralateral eye was […].
The ocular irritation of anterior segment of the eye was scored according to the following criteria:
+1: mild; +2: moderate; +3: severe.

Results on 2 compounds are retold here after patent US12290497B2, “Agent containing 4-phenylbutyrate, for preventing or treating presbyopia” (SANTEN PHARMACEUTICAL CO., LTD., priority 2018, dated 2025).

Regarding `C[N+](C)(C)CCOC(=O)CCCC[C@@H]1CCSS1.[Cl-]` [EV06, lipoic acid choline ester], the Lens elasticity improvement in the data set on lens elasticity [1] (0.5% (w/v) sample) is on record as 28.8 μm; in the data set with lens elasticity [1] (1.5% (w/v) sample), 47.3 μm; in the data set with lens elasticity [1] (5% (w/v) sample), 48.7 μm; in the data set with lens elasticity [2] (1.5% (w/v) sample) it was 49.0 μm; in the data set on lens elasticity [3] (1.5% (w/v) sample, 3 times per day (TID) for 14 days), 47.9 μm; in the data set on lens elasticity [3] (1.5% (w/v) sample, once per day (QD) for 14 days), 21.6 μm. Moreover, the “Lens elasticity improving effect (in words)” value in the data set on lens elasticity [1] (all of the 0.5%, 1.5%, and 5% groups) was “increased lens diameter compared with the vehicle control group”.

Regarding `O=C([O-])CCCc1ccccc1.[Na+]` [sodium 4-phenylbutyrate], the Lens elasticity improvement with lens elasticity [2] (0.15% (w/v) sample) was 38.1 μm; with lens elasticity [2] (0.5% (w/v) sample), 47.5 μm; in the data set with lens elasticity [2] (1.5% (w/v) sample) it was 51.4 μm; with lens elasticity [3] (0.3% (w/v) sample, once per day (QD) for 14 days), 25.6 μm; with lens elasticity [3] (1.0% (w/v) sample, once per day (QD) for 14 days) it was 30.6 μm; in the data set on lens elasticity [3] (3.0% (w/v) sample, once per day (QD) for 14 days), 48.1 μm. For the same compound, the “Lens elasticity improving effect compared with EV06 at the same concentration” value in the data set with lens elasticity [2] (1.5% sample group) is reported as “stronger than that of EV06”. The “Lens elasticity improving effect (in words)” value in the data set on lens elasticity [2] (all of the 0.15%, 0.5%, and 1.5% groups) is listed as “potent lens elasticity improving effect”. Further, the “Lens elasticity improvement (in words)” value in the data set with lens elasticity [3] (0.3%, 1% and 3% samples instilled once-daily for 14 days) is recorded as “potent lens elasticity improvement”. For the same compound, the “Lens elasticity improvement compared with 1.5% EV06” value with lens elasticity [3] (concentrations 1.0% and 3.0%, once-daily for 14 days) is listed as “more potent lens elasticity improvement compared with 1.5% EV06”. In addition, the “Overall safety of ophthalmic liquids (in words)” value in data set [4] (ophthalmic liquids, rabbit 2-week instillation) is listed as “highly safe”. In addition, the “Histopathological examination of the eyes (in words)” value in data set [4] (rabbit, in vivo) is given as “showed no abnormal findings”. In addition, the “Observation of ocular irritation of anterior segment of the eye and lens observation (in words)” value in data set [4] (rabbit, in vivo) is listed as “no abnormal findings were observed”.
